We go through six molecules from article PMC7350407, “Kinetic Modifications of C4 PEPC Are Qualitatively Convergent, but Larger in Panicum Than in Flaveria” (Frontiers in Plant Science, 2020).

As a reminder, the kcat is the number of substrate molecules converted per active site and unit of time at saturation. By kcat/Km is commonly meant the second-order rate constant that governs catalysis at low substrate concentration.

Where two headings read alike, the source gives them in different places.

In series [1] the target is T1, Panicum pygmaeum (C3) PEPC.
T1 construct: gene ppc-1P3; full-length, 969 codons, codon-optimised synthetic gene, N-terminal His6 tag kept, E. coli BL21(DE3)
In words: malate dehydrogenase-coupled NADH assay, secondary plot of kcat/Km(HCO3-) against PEP. Conditions: substrate constant at limiting bicarbonate, not inhibition; pH 8.0, 25 °C, 10 mM MgCl2. In kind it is biochemical. An excerpt: malate dehydrogenase-coupled NADH assay, secondary plot of kcat/Km(HCO3-) against PEP on Panicum pygmaeum (C3) PEPC

The target of series [2] is T2, Panicum queenslandicum (C4) PEPC.
T2 construct: gene ppc-1P3; full-length, 962 codons, N-terminal His6 tag kept, E. coli BL21(DE3), cloned from leaf cDNA
The series is described as above. The format is biochemical. The conditions noted are these: substrate constant at limiting bicarbonate, not inhibition; pH 8.0, 25 °C, 10 mM MgCl2. The text has this:
malate dehydrogenase-coupled NADH assay, secondary plot of kcat/Km(HCO3-) against PEP on Panicum queenslandicum (C4) PEPC

Series [3] concerns the target T3, Flaveria pringlei (C3) PEPC (Flaveria pringlei, UniProt Q01647).
T3 construct: gene PPCA1; full-length, 967 codons, N-terminal His6 tag kept (pET-1B His6 TEV LIC), E. coli BL21(DE3)
The series is described as above. The format is biochemical. The conditions noted are these: substrate constant at limiting bicarbonate, not inhibition; pH 8.0, 25 °C, 10 mM MgCl2. An excerpt: malate dehydrogenase-coupled NADH assay, secondary plot of kcat/Km(HCO3-) against PEP on Flaveria pringlei (C3) PEPC

Series [4] concerns T2, Panicum queenslandicum (C4) PEPC. In words: malate dehydrogenase-coupled NADH assay, […] nm, secondary plot. In kind it is biochemical. Conditions: co-substrate bicarbonate; pH 8.0, 25 °C, 10 mM MgCl2; read-out: KmPEP.
Series [5] deals with T4, Flaveria trinervia (C4) PEPC (Flaveria trinervia, UniProt P30694).
T4 construct: gene PPCA; full-length, 967 codons, N-terminal His6 tag kept (pET-1B His6 TEV LIC), E. coli BL21(DE3)
In words: malate dehydrogenase-coupled NADH assay, secondary plot of kcat/Km(HCO3-) against PEP. In kind it is biochemical. Conditions: substrate constant at limiting bicarbonate, not inhibition; pH 8.0, 25 °C, 10 mM MgCl2. An excerpt: malate dehydrogenase-coupled NADH assay, secondary plot of kcat/Km(HCO3-) against PEP on Flaveria trinervia (C4) PEPC

In series [6] the test system is T1, Panicum pygmaeum (C3) PEPC. Put plainly: malate dehydrogenase-coupled NADH assay, […] nm, secondary plot. In kind it is biochemical. Conditions: co-substrate bicarbonate; pH 8.0, 25 °C, 10 mM MgCl2; read-out: KmPEP.
The target of series [7] is T1, Panicum pygmaeum (C3) PEPC. Put plainly: malate dehydrogenase-coupled NADH assay, […] nm. The conditions noted are these: pH 8.0, 25 °C, 10 mM MgCl2, 5 mM KHCO3, PEP varied. The format is biochemical.
Series [8] addresses T2, Panicum queenslandicum (C4) PEPC. Put plainly: malate dehydrogenase-coupled NADH assay, […] nm. In kind it is biochemical. The conditions noted are these: pH 8.0, 25 °C, 10 mM MgCl2, 5 mM KHCO3, PEP varied.
Series [9] concerns the target T3, Flaveria pringlei (C3) PEPC. In words: malate dehydrogenase-coupled NADH assay, […] nm. In kind it is biochemical.
Series [10] deals with T4, Flaveria trinervia (C4) PEPC. Put plainly: malate dehydrogenase-coupled NADH assay, […] nm. In kind it is biochemical.
Series [11] relates to T5, Panicum pygmaeum (C3) PEPC.
T5 construct: gene ppc-1P3
The conditions noted are these: read-out: KmHCO3-; co-substrate PEP; pH 8.0, 25 °C, 10 mM MgCl2.

Series [12] relates to T6, Panicum queenslandicum (C4) PEPC.
T6 construct: gene ppc-1P3
Conditions: read-out: KmHCO3-; co-substrate PEP; pH 8.0, 25 °C, 10 mM MgCl2.

Substrate in series [13]: O=C(O)O
Put plainly: purified protein. Conditions: co-substrate PEP, pH 8.0, 25 °C, 10 mM MgCl2.

Substrate in series [14]: C=C(OP(=O)(O)O)C(=O)O
In words: purified protein. In kind it is biochemical, Flaveria pringlei. The conditions noted are these: co-substrate bicarbonate, pH 8.0, 25 °C, 10 mM MgCl2.

Substrate in series [15]: C=C(OP(=O)(O)O)C(=O)O
In words: purified protein. In kind it is biochemical, Flaveria trinervia. The conditions noted are these: co-substrate bicarbonate, pH 8.0, 25 °C, 10 mM MgCl2.

The mark [16] stands for this setting: competitive, read-out: KicAspartate.
Setting [17] is: mixed inhibitor, competitive constant (limiting PEP), read-out: KicMalate.

On to `C=C(OP(=O)(O)O)C(=O)O` [PEP], for which the “KiPEP” value turned out to be 0.05 ± 0.01 mM in series [1], 4.39 ± 1.10 mM in [2], 0.02 ± 0.01 mM in [3] and 0.40 ± 0.13 mM in series [5]. The Km is 4170 ± 300 µM in series [4] and 170 ± 50 µM in [6].

Consider `N[C@@H](CC(=O)O)C(=O)O` [aspartate], for which the Ki in series [7] (setting [16]) was found to be 2.27 ± 0.02 mM; in [8] (setting [16]), 49.4 ± 7.86 mM; in series [9] (read-out: KicAspartate) it was 4.13 ± 0.6 mM; in [10] (read-out: KicAspartate), 40 ± 6.49 mM.

Regarding `O=C(O)O` [bicarbonate], the Km in series [11] stood at 120 ± 20 µM; in [12], 40 ± 20 µM.

In the case of `O=C(O)C[C@H](O)C(=O)O` [malate], the Ki turned out to be 0.52 ± 0.22 mM in [7] (setting [17]), 7.51 ± 1.17 mM in series [8] (setting [17]), 2.14 ± 0.62 mM in series [9] (read-out: KicMalate) and 11 ± 1.55 mM in series [10] (read-out: KicMalate).

B1: Flaveria pringlei (C3) PEPC (Flaveria pringlei) (protein)
chain: MANRNLEKLASIDAQLRLLVPGKVSEDDKLIEYDALLLDKFLDILQDLHGEDLKEAVQECYELSAEYEGKHDPKKLEELGSVLTSLDPGDSIVIAKAFSHMLNLANLAEEVQIAYRRRIKLKRGDFADEANATTESDIEETFKKLVLKLNKSPEEVFDALKNQTVDLVLTAHPTQSVRRSLLQKHGRIRNCLAQLYAKDITPDDKQELDEALHREIQAAFRTDEIRRTPPTPQDEMRAGMSYFHETIWKGVPKFLRRVDTALKNIGINERVPYNAPLIQFSSWMGGDRDGKHPRVTPEVTRDVCLLARMMASNMYFSQIEDLMFEMSMWRCNSELRVRAEELYRTARRDVKHYIEFWKQVPPTEPYRVILGDVRDKLYNTRERSRHLLAHGISDIPEEAVYTNVEQFLEPLELCYRSLCDCGDRVIADGSLLDFLRQVSTFGLSLVKLDIRQESDRHTDVLDAITQHLEIGSYREWSEEKRQEWLLAELSGKRPLFGSDLPKTEEVKDVLDTFNVLAELPSDCFGAYIISMATSPSDVLAVELLQRECHVKHPLRVVPLFEKLADLEAAPAAMARLFSIDWYRNRIDGKQEVMIGYSDSGKDAGRFSAAWQLYKAQEEIIKVAKEFGVKLVIFHGRGGTVGRGGGPTHLAILSQPPDTIHGSLRVTVQGEVIEQSFGEEHLCFRTLQRFCAATLEHGMNPPISPRPEWRELMDQMAVVATEEYRSIVFKEPRFVEYFRLATPELEYGRMNIGSRPSKRKPSGGIESLRAIPWIFAWTQTRFHLPVWLGFGAAFKHAIKKDSKNLQMLQEMYKTWPFFRVTIDLVEMVFAKGDPGIAALNDKLLVSEDLWPFGESLRANYEETKDYLLKIAGHRDLLEGDPYLKQRIRLRDSYITTLNVCQAYTLKRIRDPNYHVTLRPHISKEYAAEPSKPADELIHLNPTSEYAPGLEDTLILTMKGIAAGMQNTG
notes: full-length, 967 codons, N-terminal His6 tag kept (pET-1B His6 TEV LIC), E. coli BL21(DE3)
As to B1, in “purified protein [13]”, the Km worked out at 100 ± 10 µM, the kcat turned out to be 52.65 ± 1.37 s⁻¹ and the kcat/Km worked out at 440000 M⁻¹ s⁻¹. Also, in the series “purified protein [14]”, the Km was 60 ± 10 µM, the kcat came to 52.65 ± 1.37 s⁻¹ and the kcat/Km was 940000 ± 84900 M⁻¹ s⁻¹.

B2: Flaveria trinervia (C4) PEPC (Flaveria trinervia) (protein)
chain: MANRNVEKLASIDAQLRLLVPGKVSEDDKLVEYDALLLDKFLDILQDLHGEDLKEAVQQCYELSAEYEGKHDPKKLEELGSLLTSLDTGDSIVIAKAFSHMLNLANLAEELQIAYRRRIKLKSGDFADEANATTESDIEETFKRLVHKLNKSPEEVFDALKNQTVELVLTAHPTQSVRRSLLQKHGRIRNCLAQLYAKDITPDDKQELDEALHREIQAAFRTDEIRRTPPTPQDEMRAGMSYFHETIWKGVPKFLRRVDTALKNIGINERFPYNAPLIQFSSWMGGDRDGNPRVTPEVTRDVCLLARMMTSNMYFSQIEDLMIEMSMWRCNSELRVRAEELYRTARKDVKHYIEFWKRIPPNQPYRVILGDVRDKLYNTRERSRHLLVDGKSDIPDEAVYTNVEQLLEPLELCYRSLCDCGDHVIADGSLLDFLRQVSTFGLSLVKLDIRQESDRHTEVLDAITQHLGIGSYREWSEEKRQEWLLAELSGKRPLIGPDLPKTEEVKDCLDTFKVLAELPSDCFGAYIISMATSTSDVLAVELLQREYHIKHPLRVVPLFEKLADLEAAPAAMTRLFSMDWYRNRIDGKQEVMIGYSDSGKDAGRFSAAWQLYKTQEQIVKIAKEFGVKLVIFHGRGGTVGRGGGPTHLALLSQPPDTINGSLRVTVQGEVIEQSFGEEHLCFRTLQRFCAATLEHGMNPPISPRPEWRELMDQMAVVATEEYRSVVFKEPRFVEYFRLATPELEFGRMNIGSRPSKRKPSGGIESLRAIPWIFSWTQTRFHLPVWLGFGAAFKHAIQKDSKNLQMLQEMYKTWPFFRVTIDLVEMVFAKGNPGIAALNDKLLVSEDLRPFGESLRANYEETKNYLLKIAGHKDLLEGDPYLKQGIRLRDPYITTLNVCQAYTLKRIRDPNYHVTLRPHISKEYAAEPSKPADELIHLNPTSEYAPGLEDTLILTMKGIAAGMQNTG
notes: as for B1
B2: in “purified protein [13]”, the Km was determined as 70 ± 10 µM, the catalytic constant (kcat) turned out to be 47.99 ± 1.21 s⁻¹ and the kcat/Km is 690000 M⁻¹ s⁻¹. For the same molecule, in the series “purified protein [15]”, the Km worked out at 600 ± 50 µM, the turnover number (kcat) came out at 47.99 ± 1.21 s⁻¹ and the kcat/Km was 80000 ± 5400 M⁻¹ s⁻¹.
